From patent US9133167B2, “Antibacterial quinoline derivatives” (JANSSEN PHARMACEUTICA NV, priority 2012, dated 2015)
In brackets after ≈: the same amount, converted by molar mass.

Test system: Staphylococcus aureus (ATCC29213)
Assay: Microtitre plate assay, IC90 for bacterial growth, Staphylococcus aureus strain
Format: cell-based
Details: 90% inhibitory concentration for bacterial growth, 24 hours at 37° C.; for IC90: read-out: IC90 (μg/ml) STA B29213
Procedure: D.2. In-Vitro Method for Testing Compounds for Anti-Bacterial Activity Against a Non-Mycobacterial Strain
Preparation of Bacterial Suspensions for Susceptibility Testing:
The bacteria used in this study were grown overnight in flasks containing 100 ml Mueller-Hinton Broth (Becton Dickinson—cat. no. 275730) in sterile de-ionized water, with shaking, at 37° C. Stocks (0.5 ml/tube) were stored at −70° C. until use. Bacteria titrations were performed in microtiter plates to detect the TCID50, in which TCID50 represents the dilution that gives rise to bacterial growth in 50% of inoculated cultures. In general, an inoculum level of approximately 100 TCID50 was used for susceptibility testing.
Anti Bacterial Susceptibility Testing: IC90 Determination
Flat-bottom, sterile 96-well plastic microtiter plates were filled with 180 μl of sterile deionized water, supplemented with 0.25% BSA. Subsequently, stock solutions (7.8× final test concentration) of compounds were added in 45 μl volumes in column 2 Serial five-fold dilutions (45 μl in 180 μl) were made directly in the microtiter plates from column 2 to reach column 11. Untreated control samples with (column 1) and without (column 12) inoculum were included in each microtiter plate. Depending on the bacteria type, approximately 10 to 60 CFU per well of bacteria inoculum (100 TCID50), in a volume of 100 μl in 2.8× Mueller-Hinton broth medium, was added to the rows A to H, except column 12. The same volume of broth medium without inoculum was added to column 12 in row A to H. The cultures were incubated at 37° C. for 24 hours under a normal atmosphere (incubator with open air valve and continuous ventilation). At the end of incubation, one day after inoculation, the bacterial growth was quantitated fluorometrically. Therefore resazurin (0.6 mg/ml) was added in a volume of 20 μl to all wells 3 hours after inoculation, and the plates were re-incubated overnight. A change in colour from blue to pink indicated the growth of bacteria. The fluorescence was read in a computer-controlled fluorometer (Cytofluor Biosearch) at an excitation wavelength of 530 nm and an emission wavelength of 590 nm. The % growth inhibition achieved by the compounds was calculated according to standard methods. The IC90 (expressed in μg/ml) was defined as the 90% inhibitory concentration for bacterial growth. The results are shown in Table 7 for an assay using a Staphylococcus aureus strain.

SMILES	IC90 (μg/ml) STA B29213	IC90
COc1nc2ccc(-c3ccncc3)cc2cc1C(c1ccccc1)C1(O)CCN(Cc2ccccc2)CC1 (racemic) [Compound 31]	>32.54 µg/mL	–
CSc1nc2ccccc2cc1C(c1ccccc1)C1(O)CCN(Cc2ccccc2)CC1 (racemic) [Compound 32]	>28.69 µg/mL	–
COc1nc2ccc(Cl)cc2cc1C(c1ccccc1)C1(O)CCN(Cc2ccccc2)CC1 (racemic) [Compound 33]	14.96 µg/mL (≈ 31.6 µM)	–
COc1ccc2nc(OC)c(C(c3ccccc3)C3(O)CCN(Cc4ccccc4)CC3)cc2c1 (racemic) [Compound 34]	>29.57 µg/mL	–
COc1nc2ccc(-c3ccco3)cc2cc1C(c1ccccc1)C1(O)CCN(Cc2ccccc2)CC1 (racemic) [Compound 37]	>31.84 µg/mL	–
CSc1nc2ccc(C)cc2cc1C(c1ccccc1)C1(O)CCN(Cc2ccccc2)CC1 (racemic) [Compound 41]	>29.57 µg/mL	–
COc1nc2cc(Br)ccc2cc1C(c1ccccc1)C1(O)CCN(Cc2ccccc2)CC1 (racemic) [Compound 43]	20.60 µg/mL (≈ 39.8 µM)	–
COc1nc2cccc(Br)c2cc1C(c1ccccc1)C1(O)CCN(Cc2ccccc2)CC1 (racemic) [Compound 44]	>32.65 µg/mL	–
COc1nc2ccc(-c3cccnc3)cc2cc1C(c1ccc(Cl)cc1)C1(O)CCN(Cc2ccccc2)CC1.O=C(O)/C=C/C(=O)O (racemic) [Compound 50]	>43.79 µg/mL	–
COc1nc2ccc(-c3ccccc3)cc2cc1C(c1ccc(Cl)cc1)C1(O)CCN(Cc2ccccc2)CC1.O=C(O)/C=C/C(=O)O (racemic) [Compound 51]	>42.92 µg/mL	–
COc1nc2ccccc2cc1C(c1ccc(Cl)cc1)C1(O)CCN(Cc2ccccc2)CC1.O=C(O)/C=C/C(=O)O (racemic) [Compound 52]	19.77 µg/mL	–
COc1nc2ccc(-c3ccco3)cc2cc1C(c1ccc(Cl)cc1)C1(O)CCN(Cc2ccccc2)CC1.O=C(O)/C=C/C(=O)O (racemic) [Compound 64]	>43.02 µg/mL	–
COc1nc2ccc(Br)cc2cc1C(c1ccc(Cl)c(C(F)(F)F)c1)C1(O)CCN(Cc2ccccc2)CC1.O=C(O)/C=C/C(=O)O (racemic) [Compound 66]	>49.51 µg/mL	–
COc1nc2ccc(Br)cc2cc1C(c1ccccc1Cl)C1(O)CCN(Cc2ccccc2)CC1.O=C(O)/C=C/C(=O)O (racemic) [Compound 67]	>43.98 µg/mL	–
COc1nc2ccc(-c3ccccc3)cc2cc1C(c1ccc(Cl)cc1)C1(O)CCN(Cc2ccc(C)cc2)CC1.O=C(O)/C=C/C(=O)O (racemic) [Compound 69]	>44.98 µg/mL	–
COc1nc2ccc(-c3ccco3)cc2cc1C(c1ccc(Cl)cc1)C1(O)CCN(Cc2ccc(C)cc2)CC1.O=C(O)/C=C/C(=O)O (racemic) [Compound 70]	>44.71 µg/mL	–
COc1nc2ccc(-c3cccnc3)cc2cc1C(c1ccc(Cl)cc1)C1(O)CCN(Cc2ccc(C)cc2)CC1.O=C(O)/C=C/C(=O)O (racemic) [Compound 71]	>44.46 µg/mL	–
COc1nc2ccc(Br)cc2cc1C(c1ccc(F)cc1)C1(O)CCN(Cc2ccccc2)CC1.O=C(O)/C=C/C(=O)O (racemic) [Compound 72]	33.82 µg/mL	–
COc1nc2ccc(Br)cc2cc1C(c1ccccc1F)C1(O)CCN(Cc2ccccc2)CC1 (racemic) [Compound 83]	>33.79 µg/mL	–
COc1nc2ccc(Br)cc2cc1C(c1cccc(F)c1)C1(O)CCN(Cc2ccccc2)CC1 (racemic) [Compound 84]	>33.79 µg/mL	–
COc1nc2ccc(-c3ccccc3)cc2cc1C(c1ccc(Cl)cc1)C1(O)CCN(CCc2ccccc2)CC1.O=C(O)/C=C/C(=O)O (racemic) [Compound 89]	>44.39 µg/mL	–

SMILES	IC90 (μg/ml) STA B29213	IC90
COc1nc2ccc(-c3ccccc3)cc2cc1C(c1ccccc1)C1(O)CCN(Cc2ccccc2)CC1 (centres unmarked) [Compound 4]	–	> 32.5 µg/mL
COc1nc2ccc(Br)cc2cc1C(c1ccccc1)C1(O)CCN(CCc2ccccc2)CC1 (centres unmarked) [Compound 5]	–	8.42 µg/mL (≈ 15.8 µM)
COc1nc2ccc(Br)cc2cc1[C@@H](c1ccc(Cl)cc1)C1(O)CCN(Cc2ccccc2)CC1 [Compound 7]	–	> 34.8 µg/mL
COc1nc2ccc(Br)cc2cc1[C@H](c1ccc(Cl)cc1)C1(O)CCN(Cc2ccccc2)CC1 [Compound 8]	–	> 34.8 µg/mL
COc1nc2ccc(Br)cc2cc1C(c1ccc(Cl)cc1)C1(O)CCNCC1 (centres unmarked) [Compound 14]	–	11.6 µg/mL (≈ 25.1 µM)
COc1nc2ccc(Br)cc2cc1C(c1ccc(Cl)cc1)C1(O)CCN(C2CCN(Cc3ccccc3)CC2)CC1 (centres unmarked) [Compound 15]	–	11.3 µg/mL (≈ 17.7 µM)
COc1nc2ccc(Br)cc2cc1C(c1ccccc1)C1(O)CCN(Cc2ccccc2)CC1 (centres unmarked) [Compound 29]	32.65 µg/mL (≈ 63.1 µM)	–
COc1nc2ccc(Br)cc2cc1C(c1ccccc1)C1(O)CCN(C(C)C)CC1 (centres unmarked) [Compound 30]	>29.62 µg/mL	–
COc1nc2ccc(Br)cc2cc1C(c1ccc(Cl)cc1)C1(O)CCN(Cc2ccccc2)CC1.O=C(O)/C=C/C(=O)O (centres unmarked) [Compound 35]	>43.03 µg/mL	–
COc1nc2ccc(Br)cc2cc1C(c1ccc(Cl)cc1)C1(O)CCN(Cc2ccccc2)CC1.O=C(O)C(=O)O (centres unmarked) [Compound 36]	32.85 µg/mL	–
COc1nc2ccc(Br)cc2cc1C(c1ccccc1)C1(O)CCN(Cc2cccc(C)c2)CC1 (centres unmarked) [Compound 38]	>33.54 µg/mL	–
COc1nc2ccc(Br)cc2cc1C(c1ccc(C)cc1)C1(O)CCN(Cc2ccccc2)CC1 (centres unmarked) [Compound 39]	33.54 µg/mL (≈ 63.1 µM)	–
COc1ccc(C(c2cc3cc(Br)ccc3nc2OC)C2(O)CCN(Cc3ccccc3)CC2)cc1 (centres unmarked) [Compound 40]	13.75 µg/mL (≈ 25.1 µM)	–
COc1nc2ccc(Br)cc2cc1C(c1ccc(Cl)cc1)C1(O)CCNCC1.O=C(O)/C=C/C(=O)O (centres unmarked) [Compound 45]	19.23 µg/mL	–
COc1nc2ccc(Br)cc2cc1C(c1ccc(Cl)cc1)C1(O)CCN(CCc2ccccc2)CC1 (centres unmarked) [Compound 46]	>35.71 µg/mL	–
COc1nc2ccc(Br)cc2cc1C(c1ccc(Cl)c(C)c1)C1(O)CCN(Cc2ccccc2)CC1 (centres unmarked) [Compound 48]	>35.71 µg/mL	–
COc1nc2ccc(Br)cc2cc1C(c1ccc(Cl)c(C)c1)C1(O)CCN(Cc2ccccc2)CC1.O=C(O)/C=C/C(=O)O (centres unmarked) [Compound 49]	>44.06 µg/mL	–
COc1nc2ccc(Br)cc2cc1C(c1ccc(Cl)c(F)c1)C1(O)CCN(Cc2ccccc2)CC1.O=C(O)/C=C/C(=O)O (centres unmarked) [Compound 53]	>44.89 µg/mL	–
COc1nc2ccc(Br)cc2cc1C(c1cc2ccccc2o1)C1(O)CCN(Cc2ccccc2)CC1.O=C(O)/C=C/C(=O)O (centres unmarked) [Compound 54]	>43.45 µg/mL	–
COc1nc2ccc(Br)cc2cc1C(c1ccc(F)c(C)c1)C1(O)CCN(Cc2ccccc2)CC1.O=C(O)/C=C/C(=O)O (centres unmarked) [Compound 55]	>43.09 µg/mL	–
